Laboratory results as given in ChEMBL document CHEMBL1152921 (Eur J Med Chem, 2009).
The source made the active and inactive calls. No cut-off for these calls is given here. Where a SMILES comes first, the peptide text is derived from it. Bridges are numbered along the chain shown (N, C = ends). [ ]: non-standard residue; d: D form. Aic = NC1(C(=O)O)Cc2ccccc2C1

Key:
Rattus norvegicus [1] = assay: (§1) Antidiuretic activity in fasted and hydrated Wistar rat assessed as compound required to yield antidiuresis time of 60 mins required for urinary excretion of half the water load at 0.001 to 100 nmol/kg, sc administered immediately after water loading by modified Burn test; format: functional, Urine
Rattus norvegicus [2] = assay: as §1, with “compound potency” for “compound required”, “test relative to 1-deamino-8-D-arginine vasopressin” for “test”; format: functional, Urine
Rattus norvegicus [3] = assay: as §1, with “compound potency” for “compound required”, “of 200” for “of 60”, “test relative to 1-deamino-8-D-arginine vasopressin” for “test”; format: functional, Urine
Rattus norvegicus [4] = assay: Antidiuretic activity in fasted and hydrated Wistar rat assessed as compound required to yield antidiuresis time of 200 mins required for urinary excretion of half the water load at 0.001 to 100 nmol/kg, sc administered immediately after water loading by modified Burn test; format: functional, Urine
Rattus norvegicus [5] = assay: Activity at vasopressin V1a receptor in phenoxybenzamine-treated Wistar rat uterus assessed as induction of arterial vasopressor activity up to 0.15 mg/kg; format: functional, organism-based; set-up: dose 0.15 mg/kg
Vasopressin V1a receptor = Vasopressin V1a receptor (Rattus norvegicus, UniProt P30560); assay: Antagonist activity at vasopressin V1a receptor in phenoxybenzamine-treated Wistar rat uterus assessed as inhibition of vasopressin-induced arterial vasopressor activity treated 1 min prior to vasopressin challenge; format: functional, tissue-based; conditions: for Kb: read-out: pA2 (converted)
Oxytocin receptor = target: T1, Oxytocin receptor (Rattus norvegicus, UniProt P70536); format: functional, tissue-based, Wistar, Uterus
T1 sequence (P70536 whole entry): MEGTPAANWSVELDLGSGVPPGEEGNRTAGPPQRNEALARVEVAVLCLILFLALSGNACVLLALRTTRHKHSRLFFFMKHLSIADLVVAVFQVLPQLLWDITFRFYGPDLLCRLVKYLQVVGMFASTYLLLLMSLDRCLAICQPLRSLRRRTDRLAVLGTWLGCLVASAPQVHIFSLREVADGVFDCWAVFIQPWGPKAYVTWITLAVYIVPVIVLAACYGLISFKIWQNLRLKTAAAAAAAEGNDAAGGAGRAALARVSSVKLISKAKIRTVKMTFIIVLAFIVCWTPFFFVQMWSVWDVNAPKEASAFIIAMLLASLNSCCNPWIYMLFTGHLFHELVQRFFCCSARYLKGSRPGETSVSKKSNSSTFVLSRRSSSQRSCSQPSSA

[6] = target: Vasopressin V1a receptor (Rattus norvegicus) (UniProt P30560); assay: Agonist activity at vasopressin V1a receptor in phenoxybenzamine-treated Wistar rat uterus assessed as arterial vasopressor activity; format: functional, tissue-based
[7] = Volume of distribution in Wistar rat; format: ADME, organism-based; conditions: in vivo

Vasopressin V1a receptor, sequence (P30560 whole entry): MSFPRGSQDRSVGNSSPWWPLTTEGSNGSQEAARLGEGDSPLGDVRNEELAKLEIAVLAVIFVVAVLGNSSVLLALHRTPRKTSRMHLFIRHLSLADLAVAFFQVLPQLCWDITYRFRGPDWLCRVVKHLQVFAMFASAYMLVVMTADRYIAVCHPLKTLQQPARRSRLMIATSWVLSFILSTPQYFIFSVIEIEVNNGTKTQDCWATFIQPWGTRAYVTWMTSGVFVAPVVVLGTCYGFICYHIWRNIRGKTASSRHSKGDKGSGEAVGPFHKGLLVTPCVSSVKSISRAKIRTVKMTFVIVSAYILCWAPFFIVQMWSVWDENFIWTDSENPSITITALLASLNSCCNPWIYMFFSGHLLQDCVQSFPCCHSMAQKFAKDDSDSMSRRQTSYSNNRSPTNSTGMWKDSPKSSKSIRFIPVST
Vasopressin V1a receptor (Rattus norvegicus), sequence (P30560 whole entry, looked up): as the sequence (P30560 whole entry) above

Activity [6]	Kb (Vasopressin V1a receptor)	Structure (SMILES)	Activity (Rattus norvegicus [1])	Activity (Rattus norvegicus [2])	Activity (Rattus norvegicus [3])	Activity (Rattus norvegicus [4])	Activity (Rattus norvegicus [5])	pA2 (Vasopressin V1a receptor)	pA2 (Oxytocin receptor)	Vd [7]
–	–	N=C(N)NCCC[C@@H](NC(=O)[C@@H]1CCCN1C(=O)[C@@H]1CSSCCC(=O)N[C@@H](Cc2ccc(O)cc2)C(=O)N[C@@H](Cc2ccccc2)C(=O)N[C@@H](CCC(N)=O)C(=O)N[C@@H](CC(N)=O)C(=O)N1)C(=O)NCC(N)=O [DESMOPRESSIN]	800 IU/mg	100%	100%	–	–	–	–	–
–	–	NC(=O)CC[C@@H]1NC(=O)[C@H](Cc2ccccc2)NC(=O)[C@H](Cc2ccc(O)cc2)NC(=O)[C@@H](N)CSSC[C@@H](C(=O)N2CCC[C@H]2C(=O)N[C@H](CCCN=C(N)N)C(=O)NCC(N)=O)NC(=O)[C@H](CC(N)=O)NC1=O	111 IU/mg	23.2%	1.7%	–	–	–	–	–
–	–	CC(C)[C@@H]1NC(=O)[C@H](Cc2ccccc2)NC(=O)[C@H](C(c2ccccc2)c2ccccc2)NC(=O)CCSSC[C@@H](C(=O)N2CCC[C@H]2C(=O)N[C@H](CCCNC(=N)N)C(=O)NCC(N)=O)NC(=O)[C@H](CC(N)=O)NC1=O (stereo in doubt; form 1) [listing 1 of 2 here]	100 IU/mg	2.2%	1.8%	4500 IU/mg	–	–	–	–
–	–	N=C(N)NCCC[C@@H](NC(=O)[C@@H]1CCCN1C(=O)[C@@H]1CSSCCC(=O)N[C@H](C(c2ccccc2)c2ccccc2)C(=O)N[C@@H](Cc2ccccc2)C(=O)N[C@@H](CCC(N)=O)C(=O)N[C@@H](CC(N)=O)C(=O)N1)C(=O)NCC(N)=O	9000 IU/mg	200%	100%	225000 IU/mg	–	–	–	–
–	–	N=C(N)NCCC[C@H](NC(=O)[C@@H]1CCCN1C(=O)[C@@H]1CSSC2(CCCCC2)CC(=O)N[C@@H](C(c2ccccc2)c2ccccc2)C(=O)N[C@@H](Cc2ccccc2)C(=O)N[C@@H](CCC(N)=O)C(=O)N[C@@H](CC(N)=O)C(=O)N1)C(=O)NCC(N)=O	<4.5 IU/mg	<0.1%	<0.1%	<4.5 IU/mg	inactive	–	–	–
–	–	CC(C)[C@@H]1NC(=O)[C@H](Cc2ccccc2)NC(=O)[C@H](C(c2ccccc2)c2ccccc2)NC(=O)CCSSC[C@@H](C(=O)N2CCC[C@H]2C(=O)N[C@H](CCCNC(=N)N)C(=O)NCC(N)=O)NC(=O)[C@H](CC(N)=O)NC1=O (stereo in doubt; form 2)	4500 IU/mg	100%	150%	450000 IU/mg	–	–	–	–
–	–	N=C(N)NCCC[C@H](NC(=O)[C@@H]1CCCN1C(=O)[C@@H]1CSSCCC(=O)N[C@H](C(c2ccccc2)c2ccccc2)C(=O)N[C@@H](Cc2ccccc2)C(=O)N[C@@H](CCC(N)=O)C(=O)N[C@@H](CC(N)=O)C(=O)N1)C(=O)NCC(N)=O	4500 IU/mg	100%	80%	200000 IU/mg	inactive	–	–	–
–	–	CC(C)[C@@H]1NC(=O)[C@H](Cc2ccccc2)NC(=O)[C@H](C(c2ccccc2)c2ccccc2)NC(=O)CCSSC[C@@H](C(=O)N2CCC[C@H]2C(=O)N[C@H](CCCNC(=N)N)C(=O)NCC(N)=O)NC(=O)[C@H](CC(N)=O)NC1=O (stereo in doubt; form 1) [listing 2 of 2 here]	–	–	–	–	inactive	–	–	–
–	–	N=C(N)NCCC[C@H](NC(=O)[C@@H]1CCCN1C(=O)[C@@H]1CSSC2(CCCCC2)CC(=O)N[C@H](C(c2ccccc2)c2ccccc2)C(=O)N[C@@H](Cc2ccccc2)C(=O)N[C@@H](CCC(N)=O)C(=O)N[C@@H](CC(N)=O)C(=O)N1)C(=O)NCC(N)=O	–	–	–	–	–	7.4	6.83	–
–	–	N=C(N)NCCC[C@@H](NC(=O)[C@@H]1CCCN1C(=O)[C@@H]1CSSCCC(=O)N[C@@H](C(c2ccccc2)c2ccccc2)C(=O)N[C@@H](Cc2ccccc2)C(=O)N[C@@H](CCC(N)=O)C(=O)N[C@@H](CC(N)=O)C(=O)N1)C(=O)NCC(N)=O	30 IU/mg	0.7%	8%	20000 IU/mg	inactive	–	–	–
–	–	CC(C)[C@@H]1NC(=O)[C@H](Cc2ccccc2)NC(=O)[C@H](C(c2ccccc2)c2ccccc2)NC(=O)CCSSC[C@@H](C(=O)N2CCC[C@H]2C(=O)N[C@@H](CCCNC(=N)N)C(=O)NCC(N)=O)NC(=O)[C@H](CC(N)=O)NC1=O	100 IU/mg	2.2%	8%	20000 IU/mg	inactive	–	–	–
–	–	N=C(N)NCCC[C@@H](NC(=O)[C@@H]1CCCN1C(=O)[C@@H]1CSSC[C@H](N)C(=O)N[C@@H](C(c2ccccc2)c2ccccc2)C(=O)N[C@@H](Cc2ccccc2)C(=O)N[C@@H](CCC(N)=O)C(=O)N[C@@H](CC(N)=O)C(=O)N1)C(=O)NCC(N)=O	30 IU/mg	0.7%	1.2%	3000 IU/mg	inactive	–	–	–
9.4 IU/mg	–	N=C(N)NCCC[C@H](NC(=O)[C@@H]1CCCN1C(=O)[C@@H]1CSSC[C@H](N)C(=O)NC2(Cc3ccccc3C2)C(=O)N[C@@H](Cc2ccccc2)C(=O)N[C@@H](CCC(N)=O)C(=O)N[C@@H](CC(N)=O)C(=O)N1)C(=O)NCC(N)=O (H-C[Aic]FQNCPRG-NH2; disulfide 1-6)	450 IU/mg	10%	18%	45000 IU/mg	–	–	–	–
–	–	N=C(N)NCCC[C@H](NC(=O)[C@@H]1CCCN1C(=O)[C@@H]1CSSC[C@H](N)C(=O)N[C@@H](Cc2ccc(O)cc2)C(=O)N[C@@H](Cc2ccccc2)C(=O)N[C@@H](CCC(N)=O)C(=O)N[C@@H](CC(N)=O)C(=O)N1)C(=O)NCC(N)=O [VASOPRESSIN]	450 IU/mg	10%	0.125%	450 IU/mg	–	–	–	0.067 L/kg
32 IU/mg	–	CC(C)[C@@H]1NC(=O)[C@H](Cc2ccccc2)NC(=O)[C@H](Cc2ccc(O)cc2)NC(=O)[C@@H](N)CSSC[C@@H](C(=O)N2CCC[C@H]2C(=O)N[C@@H](CCCNC(=N)N)C(=O)NCC(N)=O)NC(=O)[C@H](CC(N)=O)NC1=O (H-CYFVNCPRG-NH2; disulfide 1-6)	758 IU/mg	–	–	–	–	–	–	–
–	> 1.58 µM	CC(C)[C@@H]1NC(=O)[C@H](Cc2ccccc2)NC(=O)[C@@H](C(c2ccccc2)c2ccccc2)NC(=O)CCSSC[C@@H](C(=O)N2CCC[C@H]2C(=O)N[C@@H](CCCNC(=N)N)C(=O)NCC(N)=O)NC(=O)[C@H](CC(N)=O)NC1=O (stereo in doubt)	–	–	–	–	–	–	–	–
–	–	N=C(N)NCCCC(NC(=O)[C@@H]1CCCN1C(=O)[C@@H]1CSSCCC(=O)N[C@@H](Cc2ccc(O)cc2)C(=O)N[C@@H](Cc2ccccc2)C(=O)N[C@@H](CCC(N)=O)C(=O)N[C@@H](CC(N)=O)C(=O)N1)C(=O)NCC(N)=O (single isomer, unassigned) [DESMOPRESSIN]	1300 IU/mg	73.9%	97.3%	–	–	–	–	–
–	> 1.58 µM	CC(C)[C@@H]1NC(=O)[C@H](Cc2ccccc2)NC(=O)[C@@H](C(c2ccccc2)c2ccccc2)NC(=O)CCSSC[C@@H](C(=O)N2CCC[C@H]2C(=O)N[C@H](CCCNC(=N)N)C(=O)NCC(N)=O)NC(=O)[C@H](CC(N)=O)NC1=O	9000 IU/mg	200%	150%	450000 IU/mg	–	–	–	–
–	–	N=C(N)NCCC[C@H](NC(=O)[C@@H]1CCCN1C(=O)[C@@H]1CSSCCC(=O)NC(C(c2ccccc2)c2ccccc2)C(=O)N[C@@H](Cc2ccccc2)C(=O)N[C@@H](CCC(N)=O)C(=O)N[C@@H](CC(N)=O)C(=O)N1)C(=O)NCC(N)=O (single isomer, unassigned)	450 IU/mg	10%	18%	45000 IU/mg	–	–	–	–
